The source of these data is patent publication US12467068B2, “Process for the production and recovery of bio-surfactant from Bacillus sp. MCC0156” (COUNCIL OF SCIENTIFIC & INDUSTRIAL RESEARCH, priority 2019, dated 2025).

Details of series [1]: Surface tension reduced to: unit not given here. To be noted: cited from earlier work.
The nature of series [2]: Surfactant properties of purified compounds (oil dispersion, surface tension, emulsification). The settings on record: purified compound. The series is classed as physicochemical. On the procedure:
The purified compounds from the crude biosurfactants were analyzed for oil dispersion (OD), surface tension and emulsification activities using the standard protocols as mentioned in methodology. […] The low CMC value 0.3 mg/ml for crude biosurfactant results from mixture of compounds in compare to purified single compound.

Another series deals with Artemia salina. Briefly: Toxicity on microcrustacean Artemia salina (mortality after 24 h). The series is classed as in vivo. To be noted: 24 h at 28 °C, artificial sea water. On the procedure: The toxicity of bio-surfactants on microcrustacean Artemia salina was performed in artificial sea water with 30 g/L (w/v) NaCl. Different concentrations like, 10 μg/ml, 100 μg/ml and 1000 μg/ml of crude bio-surfactant and purified compound-1 was supplemented in artificial sea salt solution (pH 8.0) and inoculated with 20 numbers of micro-crustacean A. salina in 10 ml per tube of solution and incubated for 24 h at 28° C. under artificial light condition.
The toxicity of bio-surfactants was determined by calculating the mortality rate against the control (in triplicate) after 24 h incubation. The effect of biosurfactants on the microorganisms was studied in minimal salt medium (MSM) to determine the utilization or degradation pattern of bio-surfactant in presence of Pseudomonas aeruginosa NCIM 2037, Arthrobacter sp NCIM 5452 and Rhodococcus sp NCIM 5488. The minimal salt medium was supplemented with 100 ppm of crude biosurfactant and inoculated with all three strains and incubated at 30° C., 150 rpm for 72 h. Effect of biosurfactants on growth of test strains were determined through measuring the optical density at 620 nm after incubation of 72 h.

Take Aneurinifactin: the “Surface tension reduced to” value in series [1] (reported biosurfactant) is recorded as 26. The CMC value in series [1] (reported biosurfactants) is 0.026 mg/mL.
Consider `CC(C)CCCCCCCCCCCCC(O)CC(=O)O` (stereo not drawn) [compound-2, 3-Hydroxy-16-methylheptadecanoic acid], for which the “Surface properties (oil dispersion, surface tension, emulsification activity)” value in series [2] is “not active”.
Take `C=CCCCCCCCCCCCCCCCCCCCCCCCCCCCCCCCCCCCCCCCCCCCCCCCCCCCCCCCCCCCCCCCCCCCCCCCCCCCCCCCCCCCCCCCCCCCCC` [compound-1, 1-Pentanonacontene]: the Mortality with Artemia salina (10 μg/ml) is 59%; with Artemia salina (100 μg/ml) it was 61%; with Artemia salina (1000 ug/ml), 68%. Further, the E24 for n-hexane in series [2] is recorded as 40%. This compound had an Oil dispersion efficiency in series [2] of 93.75%. Further, the “Surface tension of distilled water decreased to” value in series [2] (distilled water 71.41±0.069 mN/m) is 28.53±0.02 mN/m.
